This note sets out measurements from BindingDB's records for patent US10709709 (Pfizer Inc., 2020).

As a reminder, the IC50 is the concentration that gives 50% inhibition. Low values mean greater potency, high ones weaker potency.

Chain of Protein arginine N-methyltransferase 5 (O14744 whole entry): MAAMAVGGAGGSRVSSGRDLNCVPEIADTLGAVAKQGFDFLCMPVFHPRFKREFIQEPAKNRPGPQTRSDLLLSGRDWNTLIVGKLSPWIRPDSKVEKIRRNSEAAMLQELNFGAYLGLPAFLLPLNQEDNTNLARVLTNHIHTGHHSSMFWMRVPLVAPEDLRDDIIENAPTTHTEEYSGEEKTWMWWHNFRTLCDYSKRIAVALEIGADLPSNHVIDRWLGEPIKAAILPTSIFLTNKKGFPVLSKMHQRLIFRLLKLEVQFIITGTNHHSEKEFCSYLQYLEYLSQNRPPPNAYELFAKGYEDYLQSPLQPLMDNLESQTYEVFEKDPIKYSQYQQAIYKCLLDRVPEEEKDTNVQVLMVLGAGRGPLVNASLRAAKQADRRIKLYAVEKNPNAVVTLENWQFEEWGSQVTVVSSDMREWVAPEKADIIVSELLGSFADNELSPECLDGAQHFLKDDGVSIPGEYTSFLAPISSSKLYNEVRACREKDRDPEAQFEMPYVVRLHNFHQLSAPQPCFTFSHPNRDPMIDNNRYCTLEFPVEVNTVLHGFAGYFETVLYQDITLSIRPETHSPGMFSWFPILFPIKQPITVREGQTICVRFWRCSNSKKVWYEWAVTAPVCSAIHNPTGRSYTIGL

The assay deals with Protein arginine N-methyltransferase 5 (Homo sapiens, UniProt O14744). Nature of the assay: Biochemical Assay. The protocol:
Compounds were solubilized in DMSO and serially diluted, using 3-fold dilutions, into 100% DMSO at a concentration 50-fold greater than the desired assay concentration. Following dilution, 1 ul was added to an empty 96-well microtiter plate. PRMT5/MEP50 protein complex was combined with H4(1-21) peptide ([…]) in PRMT5 assay buffer (50 mM Tris pH 8.5, 50 mM NaCl, 5 mM MgCl2, 1 mM EDTA, 1 mM TCEP) and 44 ul was added to the microtiter plate containing compound. S-Adenosyl-L-methionine (SAM) was prepared by combining 3H labelled SAM with unlabelled SAM in PRMT5 assay buffer such that the final SAM concentration was 10 uM and the specific activity was 0.2 uCi/ul. The reaction was initiated by adding 5 ul of SAM stock to the microtiter plate. The final reaction conditions were 10 nM PRMT5/MEP50 complex, 200 nM peptide and 1 uM SAM. Following a 25 minute incubation at room temperature, the reaction was stopped with the addition of 100 uL of 20% TCA. The 3H-peptide product was captured using a 96-well filter plate (MSIPN4B, Millipore) and washed 5 times with PBS buffer. Scintillation fluid (100 ul) was added to the dried filter plate and counted in a liquid scintillation counter. IC50 values were determined by fitting the data to the standard 4-parameter dose response equation using Pfizer proprietary software.
`Nc1ncnc2c1c(Br)cn2[C@@H]1C[C@H](Oc2cc(Cl)cc3c2CNCC3)[C@@H](O)[C@H]1O` [US10709709, Example 131]: the half-inhibitory concentration (IC50) came to 1 nM.

`Cc1ncnc2c1ccn2[C@@H]1C[C@H](Oc2cc(C(F)F)cc3c2CNCCO3)[C@@H](O)[C@H]1O` [US10709709, Example 205] yielded a concentration for half-maximal inhibition (IC50) of 1 nM. In other words, the single-digit nanomolar range.

`Cc1cc2c(c(O[C@H]3C[C@@H](n4ccc5c(C)ncnc54)[C@H](O)[C@@H]3O)c1)CNCCO2` [US10709709, Example 206] came in with a half-maximal inhibitory concentration (IC50) of 2 nM. This IC50 is about 2-fold higher than that of the compound before.
